Patent publication US11311508B2, “Medicinal composition for preventing or treating secondary hyperparathyroidism under maintenance dialysis” (EA Pharma Co., Ltd., priority 2017, dated 2022)
Counter-ions that a name gives are not always drawn.

Experiments:
[1] = Emetogenicity in dogs (crossover, intravenous bolus); settings: male, beagle, dog, in vivo, 1 mg/kg (no vomiting case)
Procedure: A crossover trial was conducted with male beagles (Nosan Beagle, 14-87-month-old, weight: 10.2 kg-15.8 kg). The Compound A1 solutions used in Example 2 were given at 0.3, 1 and 10 mg/kg by bolus administration (0.5 mL/kg, 1 mL/sec) to 3-6 dogs per dose to confirm the manifestation of vomiting immediately after the administration. Administration was conducted once or twice a week with a 2-day interval. Administration was conducted prior to feeding. Symptoms prior to, immediately after, and 15 and 30 minutes after the administration were observed.

[2] = test system: SHPT patients on maintenance hemodialysis; assay: Phase I/II clinical trial, repeated intravenous administration; type: in vivo, human
Procedure: (§1) Targeting SHPT patients on maintenance hemodialysis, pharmacokinetics, pharmacodynamics and safety upon single or repeated intravenous administration of Compound A1 were examined by conducting a double-blind test using a placebo as a control.
Repeated administration: Based on the clinically effective dose calculated in Example 5, the doses were given in 3 steps, namely, 0.05 mg, 0.1 mg and 0.2 mg. The trial drug was (intravenously) infused from the venous side of the dialysis circuit before the end of dialysis three times a week for 22 days (total of 9 times) starting from the first day of administration of the trial drug. Here, the trial drug was administered by diluting a required dose taken from the Compound A1 vial formulation prepared as follows with sterilized water for injection, and filling a syringe with the resultant in accordance with the dose to be administered.
(§2) Each item was evaluated according to the predetermined evaluation schedule.
(§3) A vial formulation encapsulating 1 mg of Compound A1 in terms of a dehydrate, and sodium chloride, disodium hydrogen phosphate dodecahydrate and sodium dihydrogen phosphate dihydrate as additives in 10 ml of sterilized water for injection

[3] = test system: healthy Japanese male adults; assay: Phase I clinical trial (P1), single intravenous dose; type: in vivo, human
Procedure: Thirty-two healthy Japanese male adults were given a single intravenous dose of the test drug (Compound A1) at 0.01 mg, 0.1 mg, 1.0 mg or 2.5 mg in a fasted state to study the pharmacokinetics, pharmacodynamics and safety by a double-blind test using a placebo as a control. Here, the trial drug was administered by diluting a required dose taken from the Compound A1 vial formulation prepared as follows with sterilized water for injection, and filling a syringe with the resultant in accordance with the dose to be administered.
A vial formulation encapsulating 100 mg of Compound A1 in terms of a dehydrate, and sodium chloride, disodium hydrogen phosphate dodecahydrate and sodium dihydrogen phosphate dihydrate as additives in 10 ml of sterilized water for injection

[4] = test system: patients with renal failure; assay: Estimation of EC50, PK and clinically effective dose in patients with renal failure; set-up: species or system human; settings: scaling factor applied to healthy adult EC50
Description: (§4) EC50 value in patient with renal failure was estimated based on the calculated EC50 value in healthy adults and the results from the same analysis in normal rats and adenine-treated rat models (pathological rat models). […] Since the difference in the EC50 value between rats in normal state and pathological state is presumed to be caused by the changes in PK that are considered to greatly vary between normal state and pathological state, similar tendency is expected in human as well.
The result from PK fitting, and the contribution rate of renal elimination of the drug (3.2%) calculated using PK-sim (registered trademark) were used to simulate PK prediction in the patients with renal failure. […] As a result, administration of a dose of 0.06 mg/man was estimated to maintain a concentration higher than 1.4 ng/ml for 72 hours (FIG. 8).

[5] = test system: bilaterally nephrectomized rats; assay: Survival of bilaterally nephrectomized rats after single doses; type: in vivo, rat; settings: five rats per group
Description: After quarantine and acclimatization periods of 6 days, fifty-one 7-week-old rats (Crl: CD (SD), male) were fed a 100% sucrose diet ad libitum from four days before the surgery. On the day of the surgery, skin incisions were made on the back at the sites of the right and left kidneys under isoflurane anesthesia and the renal capsules were removed to ligate the renal arteries and veins and the ureters using threads before removing the right and left kidneys. A penicillin solution was given upon suturing, and 5 mL of physiological saline was intraperitoneally administered before returning the rats into the breeding cages.
On a day after the bilaterally nephrectomy, the given doses were calculated based on the weight of the selected animals on that day. Group 1 was given a medium (physiological saline), Groups 2, 3 and 4 were given the Compound A1 solution (0.3, 3 and 30 mg/mL, respectively), and Groups 5, 6, 7 and 8 (5 rats per group) were given the comparative compound (0.3, 1, 3 and 10 mg/mL, respectively), each given a single dose of 1 ml/kg from the tail vein. Prior to the administration (0 hour), and 24 and 48 hours after the administration, approximately 300 μL of blood was collected without anesthesia from the tail vein using capillary tubes for obtaining the serum. The blood for obtaining the serum was left to stand at room temperature, and centrifuged in a high speed refrigerated microcentrifuge (10000 rpm, 5 min, 4° C.) within a period of 30 minutes to 2 hours after the blood collection to collect the serum.
The number of rats in each group was five prior to the administration.

healthy adults = assay: PK/PD analysis of P1 (three-compartment model, indirect response model incorporating rebound); type: in vivo, human; settings: Homo sapiens; iPTH decrease, healthy adults, indirect response model incorporating rebound; ± standard error
Procedure: (§5) A PK/PD analysis was conducted to estimate the clinically effective dose based on the results from P1. The dose of 2.5 mg seemed to be excessive and thus was eliminated from the analysis. PK (mean plasma concentration) and PD (mean iPTH level normalized by the levels of the placebo group and the 0-hour level) data of the doses of 0.01 mg, 0.1 mg and 1 mg were used. An indirect response model incorporating rebound was used for the PK/PD analysis.
(§6) Based on the results of PK of the three given doses (0.01 mg, 0.1 mg and 1 mg) in P1, the three given doses were simultaneously analyzed using a three-compartment model to calculate the PK parameters (FIG. 5 and Table 2).
(§7) Using the calculated PK parameters as an input function, PK/PD analysis was performed using an indirect response model incorporating rebound (FIG. 6) to calculate the EC50 value in healthy adults (FIG. 7 and Table 3).

[6] = as above; type: in vivo, human; settings: male, human, plasma, intravenous
Procedure: as §5, §6, §7

normal rats = assay: PK/PD analysis (EC50) in normal rats; type: in vivo; settings: Rattus norvegicus, same PK/PD analysis
Description: as §4

in vivo = settings: Crl:CD(SD), rat, iv, 30 mg/kg
Procedure: The mean±standard error of the serum iPTH concentrations of all individuals prior to the administration (0 hour) was 231±16 pg/ml.
Logistic curve fitting was conducted to establish the response relationship between the serum iPTH concentration 48 hours after the administration and the given dose.

[7] = test system: adenine-treated rat models; assay: PK/PD analysis (EC50) in adenine-treated rat models; type: in vivo; settings: adenine-treated rat models (pathological rat models), same PK/PD analysis
Description: as §4

normal rat = assay: Non-clinical studies of excretion and elimination; type: in vivo
Description: Compound A1 is a CaSR activator used for intravenous administration.

[8] = Phase I/II clinical trial, single intravenous administration; type: in vivo, human; settings: human, plasma, iv; single i.v. 0.025-0.8 mg; read-out: t½
Procedure: as §1
(§8) Single administration: Based on the clinically effective dose calculated in Example 5, the doses were given at 0.025 mg, 0.05 mg, 0.1 mg, 0.2 mg, 0.4 mg, 0.6 mg and 0.8 mg (7 steps). On the day of trial drug administration, the trial drug was intravenously administered as slow as possible within 60 seconds 2 to 4 hours following the end of dialysis. Here, the trial drug was administered by diluting a required dose taken from the Compound A1 vial formulation prepared as follows with sterilized water for injection, and filling a syringe with the resultant in accordance with the dose to be administered.
as §2, §3

[9] = test system: SHPT patients on maintenance hemodialysis; assay: as above; type: in vivo, human
Procedure: as §1, §8, §2, §3

Cc1c(Cl)cc(S(=O)(=O)[O-])cc1NC(=O)NC[C@H](N)C(=O)O.[Na+] [Compound A1, sodium 3-{[(2S)-2-amino-2-carboxyethyl]carbamoylamino}-5-chloro-4-methylbenzenesulfonate]
C0 [1]: 18.8 µM
accumulating property [2]: has not no accumulating property
trough concentration in plasma before the dialysis following the longest interval [2]: generally constant
maintenance of serum iPTH lowering effect ([2]; test period): maintained its effect with repeated administration
form present in the plasma ([2]; three times a week for 22 days): present mainly as an unchanged substance
elimination from plasma ([3]; single i.v. 0.01, 0.1, 1.0 and 2.5 mg): rapidly eliminated
safety (side effects) ([3]; single i.v. dose): non-severe and mild side effects such as vomiting were observed in the 1.0 mg and higher dose groups
serum iPTH concentration compared to before the administration ([3]; single i.v. dose): decreased in the 0.01 mg and higher dose groups
excretion into the urine ([3]; with respect to the given dose): excreted into the urine mostly as unchanged substances
EC50 value estimated in the patients with renal failure [4]: > 0.0014 µg/mL
survival 48 hours after the administration ([5]; all administered groups (0.3, 3 and 30 mg/kg)): all five rats survived
EC50 (healthy adults): 0.000421 ± 0.000167 µg/mL
Vd ([6]; three-compartment model, doses 0.01, 0.1, 1 mg, ± standard error): 0.0909 ± 0.0114 L/kg
C0 ([6]; assumed effective dose 0.1 mg/man, from simultaneous fitting of all doses): 0.0436 µM
EC50 (normal rats): < 0.0229 µg/mL
concentration at 48 h (in vivo): 18800 ng/mL
EC50 [7]: 0.0748 µg/mL
elimination from the plasma (normal rat; intravenously administered to a normal rat): rapidly eliminated from the plasma
main route of excretion (normal rat; non-clinical studies): renal excretion is the main route of excretion
half-life [8]: 65 to 122 h
lowering of plasma concentration immediately after dialysis vs just before the dialysis ([9]; hemodialysis performed 66 hours after the administration): 75-81%
nausea observed (non-severe and mild) ([9]; single administration): in the 0.6 mg and higher dose groups
vomiting observed (non-severe and mild) ([9]; single administration): in the 0.4 mg and higher dose groups
duration of serum iPTH lowering effect after the administration ([9]; single administration, until just before the dialysis): up to 66 hours

CC(=O)N[C@H](CSSC[C@H](N)C(=O)O)C(=O)N[C@H](C)C(=O)N[C@H](CCCNC(=N)N)C(=O)N[C@H](CCCNC(=N)N)C(=O)N[C@H](CCCNC(=N)N)C(=O)N[C@H](C)C(=O)N[C@H](CCCNC(=N)N)C(N)=O [comparative compound, etelcalcetide (Ac-c(C) arrrar-NH2) TFA salt]
survival 48 hours after the administration ([5]; 3 mg/kg group): four survived
survival 48 hours after the administration ([5]; 10 mg/kg group): one survived
